Read-outs that look alike come from different tables or passages of the source.
Target: T1, cyclooxygenase-2 (COX-2) (Homo sapiens, UniProt P35354)
T1 construct: human osteosarcoma 143 cells (which specifically express cyclooxygenase-2); endogenous in cells; host or cells: human osteosarcoma 143 cells (whole cells, and microsomes prepared from them)
T1 sequence (P35354 18-604): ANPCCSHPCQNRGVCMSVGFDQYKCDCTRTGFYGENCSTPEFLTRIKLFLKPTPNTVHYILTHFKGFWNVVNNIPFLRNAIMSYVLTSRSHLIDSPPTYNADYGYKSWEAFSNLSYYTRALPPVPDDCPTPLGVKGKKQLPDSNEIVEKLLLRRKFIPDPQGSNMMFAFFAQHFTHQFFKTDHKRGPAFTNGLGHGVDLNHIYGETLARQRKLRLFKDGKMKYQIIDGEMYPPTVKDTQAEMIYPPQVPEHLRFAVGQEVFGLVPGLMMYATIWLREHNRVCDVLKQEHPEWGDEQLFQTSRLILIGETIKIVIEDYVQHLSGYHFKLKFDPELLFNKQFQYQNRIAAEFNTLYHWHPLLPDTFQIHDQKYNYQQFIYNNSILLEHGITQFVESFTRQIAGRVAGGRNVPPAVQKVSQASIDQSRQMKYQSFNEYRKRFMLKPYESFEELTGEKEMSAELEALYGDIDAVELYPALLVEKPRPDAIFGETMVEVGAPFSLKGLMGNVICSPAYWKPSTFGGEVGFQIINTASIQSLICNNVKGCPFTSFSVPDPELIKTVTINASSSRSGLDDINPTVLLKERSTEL
Experiment: Whole cell cyclooxygenase assay, COX-2 (PGE2 synthesis in response to arachidonic acid, radioimmunoassay), human osteosarcoma 143 cells
Assay type: cell-based
Conditions: read-out: Whole Cells COX-2 % inhib.; for inhibition at 0.01 µM: 10 nM; for inhibition at 0.1 µM: 100 nM; for inhibition at 0.08 µM: 80 nM; for inhibition at 0.04 µM: 40 nM
Experimental: Compounds were tested as inhibitors of cyclooxygenase activity in whole cell and microsomal cyclooxygenase assays. Both of these assays measured prostaglandin E2 (PGE2) synthesis in response to arachidonic acid, using a radioimmunoassay. Cells used for whole cell assays, and from which microsomes were prepared for microsomal assays, were human osteosarcoma 143 cells (which specifically express cyclooxygenase-2) and human U-937 cells (which specifically express cyclooxygenase-1). In these assays, 100% activity is defined as the difference between prostaglandin E2 synthesis in the absence and presence of arachidonate addition.

inhibition at 0.01 µM [%]	inhibition at 0.02 µM (20 nM) [%]	inhibition at 0.16 µM (160 nM) [%]	inhibition at 0.04 µM [%]	Structure (SMILES)	further results
41	–	–	–	CS(=O)(=O)c1ccc(-c2cnsc2-c2ccc(F)cc2)cc1 [Example 8, 4-(4-(Methylsulfonyl)phenyl)-5-(4-fluorophenyl)-isothiazole]	inhibition at 0.1 µM: 89%
–	–	–	–	CC1(C)OC(=O)C(c2ccc(F)cc2)=C1c1ccc(S(C)(=O)=O)cc1 [Example 12, 5,5-Dimethyl-3-(4-fluorophenyl)-4-(4-methylsulfonylphenyl)-2-(5H)-furanone]	inhibition at 0.1 µM: 54%
–	39	95	–	CS(=O)(=O)c1ccc(C2=C(c3ccc(F)cc3F)C(=O)OC2)cc1 [Example 15, 3-(2,4-Difluorophenyl)-4-(4-(methylsulfonyl)phenyl)-2-(5H)-furanone]	inhibition at 0.08 µM: 76%
–	41	85	50	CS(=O)(=O)c1ccc(C2=C(c3ccc(F)c(F)c3)C(=O)OC2)cc1 [Example 16, 3-(3,4-Difluorophenyl)-4-(4-(methylsulfonyl)phenyl)-2-(5H)-furanone]	–
–	–	77	41	CS(=O)(=O)c1ccc(C2=C(c3c(F)cccc3F)C(=O)OC2)cc1 [Example 17, 3-(2,6-Difluorophenyl)-4-(4-(methylsulfonyl)phenyl)-2-(5H)-furanone]	–
–	–	58	24	CS(=O)(=O)c1ccc(C2=C(c3cc(F)ccc3F)C(=O)OC2)cc1 [Example 18, 3-(2,5-Difluorophenyl)-4-(4-(methylsulfonyl)phenyl)-2-(5H)-furanone]	–
–	–	59	21	CS(=O)(=O)c1ccc(C2=C(c3cc(F)cc(F)c3)C(=O)OC2)cc1 [Example 19, 3-(3,5-Difluorophenyl)-4-(4-(methylsulfonyl)phenyl)-2-(5H)-furanone]	–
70	–	–	91	CS(=O)(=O)c1ccc(C2=C(c3ccc(Br)cc3)C(=O)OC2)cc1 [Example 20, 3-(4-Bromophenyl)-4-(4-(methylsulfonyl)phenyl)-2-(5H)-furanone]	–
50	–	–	94	CS(=O)(=O)c1ccc(C2=C(c3ccc(Cl)cc3)C(=O)OC2)cc1 [Example 21, 3-(4-Chlorophenyl)-4-(4-(methylsulfonyl)phenyl)-2-(5H)-furanone]	–
–	39	98	–	COc1ccc(C2=C(c3ccc(S(C)(=O)=O)cc3)COC2=O)cc1 [Example 22, 3-(4-Methoxyphenyl)-4-(4-(methylsulfonyl)phenyl)-2-(5H)-furanone]	–
–	–	–	–	CS(=O)(=O)c1ccc(C2=C(c3ccccc3)C(=O)OC2)cc1 [Example 23, 3-(Phenyl)-4-(4-(methylsulfonyl)phenyl)-2-(5H)-furanone]	inhibition at 0.02 µM: 50%; inhibition at 0.16 µM: 88%
–	–	78	43	CS(=O)(=O)c1ccc(C2=C(c3ccccc3Cl)C(=O)OC2)cc1 [Example 24, 3-(2-Chlorophenyl)-4-(4-(methylsulfonyl)phenyl)-2-(5H)-furanone]	–
–	–	40	–	CS(=O)(=O)c1ccc(C2=C(c3ccc(F)cc3Br)C(=O)OC2)cc1 [Example 25, 3-(2-Bromo-4-fluorophenyl)-4-(4-(methylsulfonyl)phenyl)-2-(5H)-furanone]	–
–	–	39	–	CS(=O)(=O)c1ccc(C2=C(c3ccc(Cl)cc3Br)C(=O)OC2)cc1 [Example 26, 3-(2-Bromo-4-Chlorophenyl)-4-(4-(methylsulfonyl)phenyl)-2-(5H)-furanone]	inhibition at 0.08 µM: 27%
–	38	97	–	CS(=O)(=O)c1ccc(C2=C(c3ccc(Cl)cc3F)C(=O)OC2)cc1 [Example 27, 3-(4-Chloro-2-fluorophenyl)-4-(4-(methylsulfonyl)phenyl)-2-(5H)-furanone]	–
–	48	69	–	CS(=O)(=O)c1ccc(C2=C(c3ccc(F)c(Br)c3)C(=O)OC2)cc1 [Example 28, 3-(3-Bromo-4-fluorophenyl)-4-(4-(methylsulfonyl)phenyl)-2-(5H)-furanone]	–

inhibition at 0.01 µM [%]	inhibition at 0.02 µM (20 nM) [%]	inhibition at 0.16 µM (160 nM) [%]	inhibition at 0.04 µM [%]	Structure (SMILES)	further results
–	78	85	–	CS(=O)(=O)c1ccc(C2=C(c3cccc(Cl)c3)C(=O)OC2)cc1 [Example 29, 3-(3-Chlorophenyl)-4-(4-(methylsulfonyl)phenyl)-2-(5H)-furanone]	–
–	–	30	–	CS(=O)(=O)c1ccc(C2=C(c3ccc(F)cc3Cl)C(=O)OC2)cc1 [Example 30, 3-(2-Chloro-4-fluorophenyl)-4-(4-(methylsulfonyl)phenyl)-2-(5H)-furanone]	–
–	49	87	–	CS(=O)(=O)c1ccc(C2=C(c3ccc(Cl)cc3Cl)C(=O)OC2)cc1 [Example 31, 3-(2,4-Dichlorophenyl)-4-(4-(methylsulfonyl)phenyl)-2-(5H)-furanone]	–
73	–	–	92	CS(=O)(=O)c1ccc(C2=C(c3ccc(Cl)c(Cl)c3)C(=O)OC2)cc1 [Example 32, 3-(3,4-Dichlorophenyl)-4-(4-(methylsulfonyl)phenyl)-2-(5H)-furanone]	inhibition at 0.005 µM (5 nM): 43%; inhibition at 0.08 µM: 99%
–	–	6	–	CS(=O)(=O)c1ccc(C2=C(c3c(Cl)cccc3Cl)C(=O)OC2)cc1 [Example 33, 3-(2,6-Dichlorophenyl)-4-(4-(methylsulfonyl)phenyl)-2-(5H)-furanone]	–
30	–	102	80	CS(=O)(=O)c1ccc(C2=C(c3ccc(F)c(Cl)c3)C(=O)OC2)cc1 [Example 34, 3-(3-Chloro-4-fluorophenyl)-4-(4-(methylsulfonyl)phenyl)-2-(5H)-furanone]	–
–	32	83	57	CS(=O)(=O)c1ccc(C2=C(c3ccc(C(F)(F)F)cc3)C(=O)OC2)cc1 [Example 35, 3-(4-Trifluoromethylphenyl)-4-(4-(methylsulfonyl)phenyl)-2-(5H)-furanone]	–
11	–	89	50	COc1ccc(C2=C(c3ccc(S(C)(=O)=O)cc3)COC2=O)cc1F [Example 36, 3-(3-Fluoro-4-methoxyphenyl)-4-(4-(methylsulfonyl)phenyl)-2-(5H)-furanone]	–
53	–	93	82	COc1ccc(C2=C(c3ccc(S(C)(=O)=O)cc3)COC2=O)cc1Cl [Example 37, 3-(3-Chloro-4-methoxyphenyl)-4-(4-(methylsulfonyl)phenyl)-2-(5H)-furanone]	–
25	–	88	63	COc1ccc(C2=C(c3ccc(S(C)(=O)=O)cc3)COC2=O)cc1Br [Example 38, 3-(3-Bromo-4-methoxyphenyl)-4-(4-(methylsulfonyl)phenyl)-2-(5H)-furanone]	–
17	–	84	–	CS(=O)(=O)c1ccc(C2=C(c3ccccc3F)C(=O)OC2)cc1 [Example 39, 3-(2-Fluorophenyl)-4-(4-(methylsulfonyl)phenyl)-2-(5H)-furanone]	–
43	–	96	72	CSc1ccc(C2=C(c3ccc(S(C)(=O)=O)cc3)COC2=O)cc1 [Example 40, 3-(4-Methylthiophenyl)-4-(4-(methylsulfonyl)phenyl)-2-(5H)-furanone]	–
–	10	44	–	CS(=O)(=O)c1ccc(C2=C(c3c(F)cccc3Cl)C(=O)OC2)cc1 [Example 42, 3-(2-Chloro-6-fluorophenyl)-4-(4-(methylsulfonyl)phenyl)-2-(5H)-furanone]	–
78	–	–	101	Cc1ccc(C2=C(c3ccc(S(C)(=O)=O)cc3)COC2=O)cc1Br [Example 43, 3-(3-Bromo-4-methylphenyl)-4-(4-(methylsulfonyl)phenyl)-2-(5H)-furanone]	–
–	14	106	55	CS(=O)(=O)c1ccc(C2=C(c3ccc(Br)cc3F)C(=O)OC2)cc1 [Example 44, 3-(4-Bromo-2-fluorophenyl)-4-(4-(methylsulfonyl)phenyl)-2-(5H)-furanone]	–
16	–	101	61	CS(=O)(=O)c1ccc(C2=C(c3ccc(Br)c(Br)c3)C(=O)OC2)cc1 [Example 45, 3-(3,4-Dibromophenyl)-4-(4-(methylsulfonyl)phenyl)-2-(5H)-furanone]	–
